Results reported in patent USRE47351E1 (Gilead Sciences, Inc., priority 1999, dated 2019).
Where two headings read alike, the source gives them in different places. Blank lines part the entries; values can stand above or below the molecule they belong to.

Assays:
A2A AdoR [1] = assay: Coronary blood flow and reversal time in open-chest anesthetized pigs
Protocol: Farm pigs weighing 22-27 kg were used in this study.
Anesthesia was anesthetized with ketamine (20 mg/kg, i.m.) and sodium pentobarbital (15-18 mg/kg i.v.). Anesthesia was maintained with additional sodium pentobarbital (1.5-2 mg/kg, i.v.) every 15-20 minutes. Ventilation was maintained via a tracheotomy using a mixture of room air and 100% O2. Tidal volume, respiratory rate and fraction of O2 in inspired air were adjusted to maintain normal arterial blood gas (ABG) and pH values. […] Lactate Ringers solution was administered via an ear or femoral vein, at 5-7 ml/kg/min after a initial bolus of 300-400 ml. A catheter was inserted into the femoral artery to monitor arterial blood pressure and to obtain ABG samples.
The heart was exposed through a median stemotomy, and suspended in a pericardial cradle. Left ventricular pressure (LVP) was measured with a 5F high fidelity pressure sensitive tip transducer (Millar Instrunents, Houston, Tex.) placed in the left ventricular cavity via the apex and secured with a purse string suture. A segment of the left anterior descending coronary artery (LAD), proximal to the origin of the first diagonal branch, was dissected free of, surrounding tissue. A transit time perivascular flow probe (Transonic Systems Inc., Ithaca, N.Y.) was placed around this segment to measure coronary blood flow (CBF). Proximal to the flow probe a 24 g modified angiocatheter was inserted for intracoronary infusions. […] A2A AdoR agonists were dissolved in DMSO to produce stock concentrations of 1-5 mM, which were diluted in 0.9% saline and infused at rates of 1-1.5 ml/min. The A2A AdoR agonists were administered intracoronary. To maintain blood pressure constant, phenylephrine was administered intravenously. The phenylephrine stock solution (30 mM) was prepared in distilled water.
Prior to initiating the experiment, a 30-minute stabilization period followed the completion of all instrumentation. […] The time to recovery of 50% (t 0.5) and 90% (t0.9) of baseline CBF were recorded. Ten to 15 minutes after CBF returned to pre-drug values a second infusion with a different agonist was started. […] The effect of a maximum of three different agonists was determined in each experiment.

A2A adenosine receptor = A2A adenosine receptor (Rattus norvegicus (Rat), UniProt P30543); assay: Reversal time of coronary vasodilation in rat isolated perfused hearts; details: bolus injection
Protocol: Adult Sprague Dawley rats of either sex weighing from 230 to 260 grams were used in this study. Animals were anesthetized by peritoneal injection of a cocktail containing ketamine and xylazine (ketamine 100 mg, xylazine 20 mg/ml). The chest was opened and the heart quickly removed. The heart was briefly rinsed in ice-cold Krebs-Henseleit solution (see below), and the aorta cannulated. […] The heart was electrically paced at a fixed cycle length of 340 ms (250 beats/min) using a bipolar electrode place on the left atrium. The electrical stimuli were generated by a Grass stimulator (Model S48, W. Warwick, R.I.) and delivered through a Stimuli Isolation Unit (Model SIU5, Astro-Med, Inc., N.Y.) as square-wave pulses of 3 msec in duration and amplitude of at least twice the threshold intensity.
Coronary perfusion pressure (CPP) was measured using a pressure transducer, connected to the aortic cannula via a T-connector positioned approximately 3 cm above the heart Coronary perfusion pressure was monitored throughout the experiment and recorded either on a chart recorder (Gould Recorder ^2200S) or a computerized recording system (PowerLab/4S, ADInstruments Pty Ltd, Australia). Only hearts with CPP ranging from 60 to 85 mmHg (in the absence of drugs) were used in the study.
Protocol A: Bolus injections. […] The times to 50% (t 0.5) and 90%/o (t 0.9) reversal of the decrease in CPP were measured. Each heart was exposed to a maximum of three vasodilators.
Protocol B: Continuous infusion. […] The times to 50% (t 0.5) and 90% (t 0.9) reversal of the decreases in CPP were measured from the time at which the infusion of the agonists was stopped. […] In addition, the duration of the injection was varied according to the volume of the boluses such as 10, 20 and 30 sec for 100, 200 and 300 μl boluses respectively. […] Boluses of various agonists were injected into the perfusion line of rat isolated perfused hearts (n=4 to 6 for each agonist) and the time to 90% (t0.9) reversal of the decrease in CPP measured.

A2A receptor = A2A receptor (Sus scrofa, UniProt K9IW67); assay: A2A receptor affinity in pig striatum membrane prep (tritiated ZM 241385 displacement); assay type: binding
Protocol: Compounds of this invention were assayed to determine their affinity for the A2A receptor in a pig striatum membrane prep. […]. To the pig membranes was added 2 μL of serially diluted DMSO stock solution of the compounds of this invention at concentrations ranging from 10 nM to 100 microM or the control received 2 microL of DMSO alone, then the antagonist ZM 241385 in Tris buffer (50 mM, pH of 7.4) was added to achieve a final concentration of 2 nM. After incubation at 23° C. for 2 h, then the solutions were filtered using a membrane harvester using multiple washing of the membranes (3×). The filter disks were counted in scintillation cocktail to determine the amount of displacement of tritiated ZM displaced by the compounds of this invention. Greater than a 5 point curve was used to generate Ki's and the number of experiments is indicated in the column marked in Table 1 below.

A1 AdoR [2] = target: A1 AdoR (Rattus norvegicus (Rat), UniProt P25099); assay: A-V nodal conduction time (negative dromotropic effect) in rat isolated perfused hearts; details: Compound 16 0.1-30 μM, CVT510 100-400 nM
Protocol: (§1) In experiments in which A1 adenosine receptor-mediated negative dromotropic effect was measured, atrial and ventricular surface electrograms were recorded during constant atrial pacing.
(§2) A1 adenosine receptor-mediated depression of A-V nodal conduction time (negative dromotropic effect) was measured. Atrial and ventricular surface electrograms in rats and His bundle electrogram in guinea pigs, were recorded during constant atrial pacing.
(§3) Hearts were instrumented for continuous recording of coronary perfusion pressure (A2A response) and atrioventricular (A-V) conduction time or S-H interval (A1 response).

A2A AdoR [3] = target: A2A AdoR (Cavia porcellus (Guinea pig), UniProt P46616)
Excerpt: as §3

A2A AdoR [4] = target: A2A AdoR (Rattus norvegicus (Rat), UniProt P30543)
Excerpt: as §3

human A2BAdoR = human A2BAdoR (Homo sapiens (Human), UniProt P29275); assay: Competition for [3H]CPX binding sites on HEK-hA2BAdoR membranes; details: compound at 10 μM
Protocol: (§4) Cell culture and membrane preparation-PC12 cells were obtained from the American Type Culture Collection and grown in DMEM with 5% fetal bovine serum, 10% horse serum, 0.5 mmol/L L-glutamine, 100 U/mL penicillin, 0.1 mg/mL streptomycin, and 2.5 μg/mL amphotericin. HEK-293 cells stably expressing recombinant human A2BAdoRs (HEK-hA2BAdoR) were grown in DMEM supplemented with 10% fetal bovine serum and 0.5 mg/mL G-418. CHOK1 cells stably expressing the recombinant human A1AdoR (CHO-hA1AdoR) and A3AdoR (CHO-hA3AdoR) were grown as monolayers on 150-mm plastic culture dishes in Ham's F-12 media supplemented with 10% fetal bovine serum in the presence of 0.5 mg/mL G-418. Cells were cultured in an atmosphere of 5% CO2/95% air maintained at 37° C.
(§5) To make membranes, cells were detached from the culture plates into ice-cold 50 mmol/L Tris-HCl buffer (pH7.4). […] The protein concentration of membrane suspensions was determined using the Bradford method (Bio-Rad) with bovine serum as standards. […]
(§6) The affinity ([…]) of various CVT compounds for the A1 and A2A adenosine receptor were determined by their potency to compete for [^3H]CPX (A1) or [^3H]ZM241385 (A2A) binding sites on membranes derived from CHO-hA1AdoR, PC12 or HEK-HA2AAdoR cells. […] The affinity of selected compounds for A2B and A3 receptors were assessed by their potencies to compete for [^3H] […]

human A3AdoR = human A3AdoR (Homo sapiens (Human), UniProt P0DMS8); assay: Competition for [125I]ABMECA binding sites on CHO-hA3AdoR membranes; details: compound at 10 μM
Protocol: as §4, §5, §6

human A1AdoR = human A1AdoR (Homo sapiens (Human), UniProt P30542); assay: Competition binding, [3H]DPCPX/[3H]CPX sites on CHO-hA1AdoR cell membranes; details: in presence of Gpp(NH)p 100 μM
human A2AAdoR = human A2AAdoR (Homo sapiens (Human), UniProt P29274); details: conclusion of Example 15
Protocol: Adenosine deaminase was purchased from Boehringer Mannheim Biochemicals Indianapolis, Id., U.S.A). [^3H]ZM241385 (Lot No. 1) was purchased from Tocris Cookson Ltd (Langford, Bristol, UK).
At the end of incubation, bound and free radioligands were separated by filtration through Whatman GF/C glass fiber filters using a Brandel tissue harvester (Gaithersburg, Md.). Triplicate determinations were performed for each concentration of the competing agent.
The affinity ([…]) of various CVT compounds for the A1 and A2A adenosine receptor were determined by their potency to compete for [^3H]CPX (A1) or [^3H]ZM241385 (A2A) binding sites on membranes derived from CHO-hA1AdoR, PC12 or HEK-HA2AAdoR cells. […] The affinity of selected compounds for A2B and A3 receptors were assessed by their potencies to compete for [^3H] […] ABMECA (A3) binding sites on membranes derived from HEK-hA2BAdoR and CHO-hA3AdoR cells, respectively.

A1 AdoR [5] = target: A1 AdoR (Cavia porcellus (Guinea pig), UniProt P47745)
Protocol: as §1, §2, §3

[6] = pig striatal membranes, displacement of tritiated ZM 241385 (2 nM), 23° C. 2 h; read-out: A2a Ki

A2A adenosine receptor, sequence (P30543 whole entry, the tested form may be a part): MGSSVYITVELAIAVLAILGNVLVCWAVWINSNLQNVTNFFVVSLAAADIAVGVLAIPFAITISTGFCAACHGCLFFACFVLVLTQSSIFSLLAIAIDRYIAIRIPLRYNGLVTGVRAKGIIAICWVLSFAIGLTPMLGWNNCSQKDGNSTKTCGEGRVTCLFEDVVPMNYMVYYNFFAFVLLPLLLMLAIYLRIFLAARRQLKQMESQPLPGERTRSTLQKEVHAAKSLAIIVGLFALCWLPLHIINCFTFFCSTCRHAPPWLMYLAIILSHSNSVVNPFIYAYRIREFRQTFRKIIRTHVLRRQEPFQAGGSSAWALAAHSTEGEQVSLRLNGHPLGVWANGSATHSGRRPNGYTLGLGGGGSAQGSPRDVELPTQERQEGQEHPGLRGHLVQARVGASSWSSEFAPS
A2A receptor, sequence (K9IW67 1-409): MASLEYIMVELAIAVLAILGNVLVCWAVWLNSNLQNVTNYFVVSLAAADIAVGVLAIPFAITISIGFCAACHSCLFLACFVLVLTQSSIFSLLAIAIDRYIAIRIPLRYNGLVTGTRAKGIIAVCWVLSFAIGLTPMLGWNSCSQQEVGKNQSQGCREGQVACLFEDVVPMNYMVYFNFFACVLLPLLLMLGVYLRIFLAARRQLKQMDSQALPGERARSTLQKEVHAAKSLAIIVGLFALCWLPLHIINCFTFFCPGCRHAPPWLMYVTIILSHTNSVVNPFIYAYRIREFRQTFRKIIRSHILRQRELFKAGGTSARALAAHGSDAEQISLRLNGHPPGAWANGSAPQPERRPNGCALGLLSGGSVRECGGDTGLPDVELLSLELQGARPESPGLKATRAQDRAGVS
A1 AdoR (Rattus norvegicus (Rat), UniProt P25099), sequence (P25099 whole entry, the tested form may be a part): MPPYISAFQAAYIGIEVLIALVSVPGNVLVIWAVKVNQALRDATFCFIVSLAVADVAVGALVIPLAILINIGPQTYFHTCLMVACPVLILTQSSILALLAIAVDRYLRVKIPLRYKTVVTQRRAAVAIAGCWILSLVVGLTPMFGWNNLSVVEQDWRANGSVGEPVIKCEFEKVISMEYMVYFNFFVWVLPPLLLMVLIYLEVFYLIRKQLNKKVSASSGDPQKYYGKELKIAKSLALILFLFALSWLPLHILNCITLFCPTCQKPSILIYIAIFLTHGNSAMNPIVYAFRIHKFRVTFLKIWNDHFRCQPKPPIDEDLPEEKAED
human A1AdoR, sequence (P30542 whole entry): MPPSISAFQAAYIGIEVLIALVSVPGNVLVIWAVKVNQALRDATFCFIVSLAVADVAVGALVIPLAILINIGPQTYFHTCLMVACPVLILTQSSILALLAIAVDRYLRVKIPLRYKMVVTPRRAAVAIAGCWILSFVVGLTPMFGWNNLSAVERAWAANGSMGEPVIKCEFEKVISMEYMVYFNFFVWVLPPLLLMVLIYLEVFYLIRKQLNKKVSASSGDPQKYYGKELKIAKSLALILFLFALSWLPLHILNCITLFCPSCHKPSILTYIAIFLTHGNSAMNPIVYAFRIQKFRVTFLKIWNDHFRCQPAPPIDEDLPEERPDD
A2A AdoR (Rattus norvegicus (Rat), UniProt P30543), sequence (P30543 whole entry): as the sequence (P30543 whole entry, the tested form may be a part) above
human A2BAdoR, sequence (P29275 whole entry): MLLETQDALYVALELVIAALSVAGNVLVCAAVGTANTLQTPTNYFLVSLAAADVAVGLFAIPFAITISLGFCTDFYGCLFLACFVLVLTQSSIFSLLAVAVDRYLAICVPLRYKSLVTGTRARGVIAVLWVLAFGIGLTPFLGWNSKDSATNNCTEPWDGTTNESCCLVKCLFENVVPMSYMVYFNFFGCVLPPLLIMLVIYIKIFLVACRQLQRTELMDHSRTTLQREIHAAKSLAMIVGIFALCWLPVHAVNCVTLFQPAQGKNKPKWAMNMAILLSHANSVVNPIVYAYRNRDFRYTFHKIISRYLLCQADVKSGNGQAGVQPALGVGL
human A3AdoR, sequence (P0DMS8 whole entry): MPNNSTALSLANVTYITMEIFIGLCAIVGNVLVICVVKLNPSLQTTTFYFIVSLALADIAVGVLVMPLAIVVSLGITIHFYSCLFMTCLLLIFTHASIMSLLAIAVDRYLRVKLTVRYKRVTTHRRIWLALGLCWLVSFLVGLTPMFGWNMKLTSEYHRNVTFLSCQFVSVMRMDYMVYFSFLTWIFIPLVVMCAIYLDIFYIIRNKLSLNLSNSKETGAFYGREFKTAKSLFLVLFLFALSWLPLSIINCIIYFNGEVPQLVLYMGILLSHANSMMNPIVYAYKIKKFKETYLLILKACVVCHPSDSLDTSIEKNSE
A1 AdoR (Cavia porcellus (Guinea pig), UniProt P47745), sequence (P47745 whole entry): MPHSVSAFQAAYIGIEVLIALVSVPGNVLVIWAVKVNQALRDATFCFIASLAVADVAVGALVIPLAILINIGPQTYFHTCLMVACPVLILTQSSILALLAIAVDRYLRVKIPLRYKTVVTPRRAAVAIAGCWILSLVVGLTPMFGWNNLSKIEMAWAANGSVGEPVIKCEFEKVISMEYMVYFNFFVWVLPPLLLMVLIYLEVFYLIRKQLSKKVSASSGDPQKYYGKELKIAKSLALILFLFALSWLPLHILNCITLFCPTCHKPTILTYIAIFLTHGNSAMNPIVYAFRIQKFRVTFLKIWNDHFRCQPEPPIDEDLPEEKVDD
human A2AAdoR, sequence (P29274 whole entry): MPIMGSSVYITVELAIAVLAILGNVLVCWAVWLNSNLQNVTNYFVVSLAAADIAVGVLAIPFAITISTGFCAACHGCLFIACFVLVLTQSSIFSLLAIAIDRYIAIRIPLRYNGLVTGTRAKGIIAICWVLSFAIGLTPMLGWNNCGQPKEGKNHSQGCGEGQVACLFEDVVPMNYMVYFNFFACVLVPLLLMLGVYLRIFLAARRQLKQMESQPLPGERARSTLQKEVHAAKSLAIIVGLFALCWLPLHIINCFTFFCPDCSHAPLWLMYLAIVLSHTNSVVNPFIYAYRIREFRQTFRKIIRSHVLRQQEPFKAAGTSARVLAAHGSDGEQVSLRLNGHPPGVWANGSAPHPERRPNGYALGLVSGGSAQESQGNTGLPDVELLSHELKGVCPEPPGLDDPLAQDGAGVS
A2A AdoR (Cavia porcellus (Guinea pig), UniProt P46616), sequence (P46616 whole entry): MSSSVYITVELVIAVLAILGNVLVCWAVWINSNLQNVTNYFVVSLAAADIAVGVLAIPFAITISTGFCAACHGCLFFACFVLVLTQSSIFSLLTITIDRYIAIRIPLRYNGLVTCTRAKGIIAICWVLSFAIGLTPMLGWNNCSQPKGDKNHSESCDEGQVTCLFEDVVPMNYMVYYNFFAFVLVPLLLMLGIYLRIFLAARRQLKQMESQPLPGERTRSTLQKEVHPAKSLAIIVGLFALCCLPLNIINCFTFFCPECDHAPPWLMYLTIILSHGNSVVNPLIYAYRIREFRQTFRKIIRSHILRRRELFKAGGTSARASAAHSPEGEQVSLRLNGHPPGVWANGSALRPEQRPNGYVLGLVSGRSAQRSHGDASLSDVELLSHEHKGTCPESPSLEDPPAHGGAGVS

Structure (SMILES): Nc1nc(N/N=C/C2CCCCC2)nc2c1ncn2[C@@H]1O[C@H](CO)[C@@H](O)[C@H]1O [WRC-0470, 2-cyclohexylmethylidenehydrazino-adenosine]
t 0.5 (min), time to 50% reversal of the increase in coronary blood flow (A2A AdoR [1]; 1 μg/kg/min): 9.5 ± 0.8 min | t 0.9 (min), time to 90% reversal of the increase in coronary blood flow (A2A AdoR [1]; 1 μg/kg/min): 22.5 ± 1.6 min

t 0.5 (min), time to 50% reversal of the increase in coronary conductance (A2A adenosine receptor): 17.7 ± 1.0 min | t 0.9 (min), time to 90% reversal of the increase in coronary conductance (A2A adenosine receptor): 28.5 ± 4.0 min
Structure (SMILES): CCCCCCC#Cc1nc(N)c2ncn([C@@H]3O[C@H](CO)[C@@H](O)[C@H]3O)c2n1 [YT-146, 2-alkynyladenosine]
t 0.5 (min), time to 50% reversal of the increase in coronary blood flow (A2A AdoR [1]; 1 μg/kg/min): 17.8 ± 3.4 min | t 0.9 (min), time to 90% reversal of the increase in coronary blood flow (A2A AdoR [1]; 1 μg/kg/min): 32.9 ± 5.6 min | CBF (“Fold Increase”) (A2A AdoR [1]; 1 μg/kg/min intracoronary infusion): 3.44 ± 0.47 fold

Ki (A2A receptor; [6]): > 100000 nM
Structure (SMILES): Nc1nc(-n2cc(C(=O)O)cn2)nc2c1ncn2[C@@H]1O[C@H](CO)[C@@H](O)[C@H]1O [Compound 17, 1-{9-[(4S,2R,3R,5R)-3,4-dihydroxy-5-(hydroxymethyl)oxolan-2-yl]-6-aminopurin-2-yl}pyrazole-4-carboxylic acid]

Ki (A2A receptor; [6]): 10 to 1000 nM
Structure (SMILES): CCNC(=O)c1cnn(-c2nc(N)c3ncn(C4O[C@H](CO)[C@@H](O)[C@H]4O)c3n2)c1 (stereo partly drawn) [Compound 19, (1-{9-[(4S,2R,3R,5R)-3,4-dihydroxy-5-(hydrozymethyl)oxolan-2-yl]-6-aminopurin-2-yl}pyrazol-4-yl)-N-ethylcarboxamide]

t 0.5 (min), time to 50% reversal of the increase in coronary conductance (A2A adenosine receptor): 14.83 ± 2.1 min | t 0.9 (min), time to 90% reversal of the increase in coronary conductance (A2A adenosine receptor): 15.0 ± 0.8 min | Ki (A2A receptor; [6]): 10 to 1000 nM
Structure (SMILES): CCOC(=O)c1cnn(-c2nc(N)c3ncn([C@@H]4O[C@H](CO)[C@@H](O)[C@H]4O)c3n2)c1 [Compound 12, Ethyl 1-{9-[(4S,2R,3R,5R)-3,4-dihydroxy-5-(hydroxymethyl)oxolan-2-yl]-6-aminopurin-2-yl}pyrazole-4-carboxylate]

Ki (A2A receptor; [6]): 10 to 1000 nM
Structure (SMILES): CN(C)C(=O)c1cnn(-c2nc(N)c3ncn([C@@H]4O[C@H](CO)[C@@H](O)[C@H]4O)c3n2)c1 [Compound 18, (1-{9-[(4S,2R,3R,5R)-3,4-dihydroxy-5-(hydroxymethyl)oxolan-2-yl]-6-aminopurin-2-yl}pyrazol-4-yl)-N,N-dimethylcarboxamide]

Ki (A2A receptor; [6]): 1000 to 10000 nM
Structure (SMILES): COc1ccc(-c2cnn(-c3nc(N)c4ncn(C5O[C@H](CO)[C@@H](O)[C@H]5O)c4n3)c2)cc1 (stereo partly drawn) [Compound 14, (4S,2R,3R,5R)-2-{6-Amino-2-[4-(4-metboxyphenyl)pyrazolyl]purin-9-yl}-5-(hydroxymethyl)oxolane-3,4-diol]

Structure (SMILES): OC[C@H]1O[C@@H](n2cnc3c(N[C@@H]4CCOC4)ncnc32)[C@H](O)[C@@H]1O [CVT510, 2-{6-[((3R)oxolan-3-yl)amino]purin-9-yl}(4S,3R,5R)-(hydroxymethyl)oxolane-3,4-diol, reference compound]
Effect on A-V nodal conduction time (A1 AdoR [2]): significantly prolonged

Ki (A2A receptor; [6]): 10 to 1000 nM
Structure (SMILES): NC(=O)c1cnn(-c2nc(N)c3ncn([C@@H]4O[C@H](CO)[C@@H](O)[C@H]4O)c3n2)c1 [Compound 20, 1-{9-[(4S,2R,3R,5R)-3,4-dihydroxy-5-(hydroxymethyl)oxolan-2-yl]-6-aminopurin-2-yl}pyrazole-4-carboxamide]

Ki (A2A receptor; [6]): 1000 to 10000 nM
Structure (SMILES): Cc1ccc(-c2cnn(-c3nc(N)c4ncn(C5O[C@H](CO)[C@@H](O)[C@H]5O)c4n3)c2)cc1 (stereo partly drawn) [Compound 15]

Ki (A2A receptor; [6]): 10 to 1000 nM
Structure (SMILES): Nc1nc(-n2cc(C(=O)NCc3ccc(Cl)cc3)cn2)nc2c1ncn2[C@@H]1O[C@H](CO)[C@@H](O)[C@H]1O [Compound 22, (1-{9-[(4S,2R,3R,5R)-3,4-dihydroxy-5-(hydroxymethyl)oxolan-2-yl]-6-aminopurin-2yl}pyrazol-4yl)-N-[(4-chlorophenyl)methyl]carboxamide]

t 0.5 (min), time to 50% reversal of the increase in coronary conductance (A2A adenosine receptor): 28.6 ± 1.1 min | t 0.9 (min), time to 90% reversal of the increase in coronary conductance (A2A adenosine receptor): 32.8 ± 3.1 min
Structure (SMILES): CCCCC#Cc1nc(N)c2ncn([C@@H]3O[C@H](C(=O)NCC)[C@@H](O)[C@H]3O)c2n1 [HENECA, N-ethyl-1′-deoxy-1′-(6-amino-2-hexynyl-9H-purin9-yl)-beta-D-ribofuranuronamide]

Structure (SMILES): CNC(=O)c1cnn(-c2nc(N)c3ncn(C4O[C@H](CO)[C@@H](O)[C@H]4O)c3n2)c1 (stereo partly drawn) [Compound 16, (1-{9-[(4S,2R,3R,5R)-3,4-dihydroxy-5-(bydroxymethyl)oxolan-2-yl]-6-aminopurin-2-yl}pyrazol-4-yl)-N-methylcarboxamide]
EC50 (A2A AdoR [3]): 18.6 ± 6 nM | EC50 (A2A AdoR [4]): 6.4 ± 0.6 nM | Effect on A-V nodal conduction time (A1 AdoR [2]): did not prolong | Decrease of specific binding of [3H]CPX (HEK-hA2BAdoR) (human A2BAdoR): 20% | Decrease of specific binding of [125I]IBMECA (CHO-hA3AdoR) (human A3AdoR): 22% | Ki (human A1AdoR; read-out: Binding Affinity Ki, CHO-hA1AR): > 16500 nM | Ki (human A1AdoR; read-out: Binding Affinity pKi ± SEM, CHO-hA1AR (converted)): 25700 nM | A2A affinity in words (human A2AAdoR): low affinity A2A agonist | EC50 (A1 AdoR [5]): 4000 ± 2300 nM | Ki (A2A receptor; read-out: A2a Ki; pig striatal membranes, displacement of tritiated ZM 241385 (2 nM), 23° C. 2 h): 1000 to 10000 nM

Ki (A2A receptor; [6]): 10 to 1000 nM
Structure (SMILES): Nc1nc(-n2cc(C(=O)NC3CCCC3)cn2)nc2c1ncn2[C@@H]1O[C@H](CO)[C@@H](O)[C@H]1O [Compound 21, (1-{9-[(4S,2R,3R,5R)-3,4-dihydroxy-5-(hydroxymethyl)oxolan-2-yl]-6-aminopurin-2-yl}pyrazol-4-yl)-N-(cyclopentyl)carboxamide]

Structure (SMILES): CCNC(=O)[C@H]1O[C@@H](n2cnc3c(N)nc(NCCc4ccc(CCC(=O)O)cc4)nc32)[C@H](O)[C@@H]1O [CGS21680]
t 0.5 (min), time to 50% reversal of the increase in coronary blood flow (A2A AdoR [1]; 2 μg/kg/min): 9.7 ± 0.8 min | t 0.9 (min), time to 90% reversal of the increase in coronary blood flow (A2A AdoR [1]; 2 μg/kg/min): 21.4 ± 0.8 min
